# Legend:
# Format in all cases: in vivo, mice (C57BL/6)
# [1] = tested on: animal model of insulin-resistant diabetes; test: Histopathological change of liver, kidney and pancreas (H&E); conditions: count in group of 10 animals
# Protocol: (§1) STZ (Sigma-aldrich, S0130, 40 mg/kg b.w., in 0.1 M citrate buffer pH 4.5) was intraperitoneally administered to 9-week-old male mice (C57BL/6) once/1 day for 5 days to perform a first disease induction. After 7 weeks of the first induction, a second induction was performed using the same method as the first induction. For 5 days of an STZ administration period for the first induction, 10% sucrose was administered as drinking water. In addition, after 14 days of the second administration, blood sugar was confirmed to confirm the induction rate, and the induced animals were separated into groups. Experimental substances (R)-4-{(R)-1-[7-(3,4,5-trimethoxy-phenyl)-[1,6] naphthyridine-5-yloxy]-ethyl}pyrrolidine-2-one (BI-1002494) and cromolyn (OC-101) were administered orally into the stomach at 10 mL/kg using an oral administration syringe (sonde) before 16:00 daily for 12 weeks at a frequency of 7 days/week at doses shown in Table 1 below, respectively, and dexamethasone was orally administered as a positive control substance.
# At the end of the observation period, the mice in each group of Example 1 were confirmed to be dead, and the liver, kidney, and pancreas were extracted and fixed with 10% neutral buffered formalin (NBF) in at least 20 times the tissue volume. The fixed tissue was sectioned to a thickness of approximately 4 mm and then produced into a paraffin block through general tissue processing and embedding processes. Thereafter, the tissue was sectioned to a thickness of 4 μm using a rotary microtome, and then H&E staining was performed, and histopathological changes were observed.
# [2] = tested on: animal model of insulin-resistant diabetes; test: Blood sugar, tail vein blood, blood sugar meter, 4 h fasting; set-up: blood sugar, Mean: unit not given here
# Protocol: as §1
# Before disease induction, excluding week 9 of administration of experimental substances to mice in each group of Example 1 above, after 2 weeks after the first induction (based on a first administration date), and after 6 weeks and 2 weeks of the second induction (based on the first administration date), blood was collected from the tail vein and blood sugar was measured using a blood sugar meter (Accu-Check, Roche), and fasting was performed for 4 hours from 9:30 a.m. to 1:30 p.m.
# [3] = Drinking water intake of mice in STZ-induced insulin-resistant diabetes model; set-up: unit not given here
# Protocol: as §1
# [4] = Body weight of mice in STZ-induced insulin-resistant diabetes model
# Protocol: as §1
# [5] = tested on: animal model of insulin-resistant diabetes; test: Blood biochemistry, automated analyzer, at end of observation
# Protocol: as §1
# (§2) After the observation period for mice of each group in Example 1 was terminated, all surviving animals were fasted in the same manner as when measuring blood sugar, and then anesthetized by inhaling isoflurane, and blood was collected from the abdominal vena cava through laparotomy. After the blood collection was completed, the veins and arteries were cut under anesthesia and exsanguinated. The collected blood was left at room temperature for 30 minutes or more and then centrifuged at 3,000 rpm for 20 minutes. Thereafter, glucose, blood urea nitrogen (BUN), and creatinine were analyzed using an automated blood biochemistry analyzer (Hitachi 3100, Hitachi Co. Ltd., Japan). Indoxyl sulfate (a substance that was mainly produced in the intestines to cause kidney damage, and a substance that caused end-stage renal failure by advancing kidney function damage in patients with renal failure during hemodialysis) was analyzed using LC MS/MS. In addition, blood insulin was analyzed according to a method represented by a commercial Mouse Insulin ELISA KIT (#AKRIN-011T, Sibayagi Co. Ltd., Japan).
# [6] = Feed intake of mice in STZ-induced insulin-resistant diabetes model; set-up: feed intake: unit not given here; conditions: 50 mg/kg/day oral
# Protocol: as §1
# [7] = tested on: animal model of insulin-resistant diabetes; test: Blood indoxyl sulfate by LC MS/MS; conditions: 50 mg/kg/day oral, 12 weeks
# Protocol: as §1, §2
# [8] = tested on: animal model of insulin-resistant diabetes; test: Blood insulin (Mouse Insulin ELISA) and HOMA-IR; conditions: 50 mg/kg
# Protocol: as §1, §2
# [9] = 50 mg/kg/day oral, 12 weeks, blood
smiles,measurement,setting,value
"C[C@@H]1C[C@H]2[C@@H]3CCC4=CC(=O)C=C[C@]4(C)[C@@]3(F)[C@@H](O)C[C@]2(C)[C@@]1(O)C(=O)CO [Dexamethasone, reference compound]",Kidney Medullar apoptosis,[1]; 2 mg/kg (G3),1
same,Kidney Medullar mineralization,[1]; 2 mg/kg (G3),2
same,Kidney NHL,[1]; 2 mg/kg (G3),6
same,Kidney bowman's capsule hyperplasia,[1]; 2 mg/kg (G3),2
same,Kidney pappillary mineralization,[1]; 2 mg/kg (G3),0
same,Liver Apoptosis,[1]; 2 mg/kg (G3),4
same,Liver Cytoplasmic glycogen,[1]; 2 mg/kg (G3),0
same,Liver Eosinophlic focus of cellular alteration,[1]; 2 mg/kg (G3),3
same,Liver Mononuclear cell infiltrate,[1]; 2 mg/kg (G3),0
same,Liver NHL,[1]; 2 mg/kg (G3),5
same,Pancrease Apoptosis,[1]; 2 mg/kg (G3),0
same,Pancrease NHL,[1]; 2 mg/kg (G3),8
same,Pancrease islet degeneration,[1]; 2 mg/kg (G3),1
same,Pancrease islet hypertrophy,[1]; 2 mg/kg (G3),0
same,"Pancrease islet, mononuclear cell infillitrate",[1]; 2 mg/kg (G3),1
same,"blood sugar, Mean","[2]; 2 mg/kg/day oral, value column 2 of 6, head prints only weeks 0, 4, 8, 10",309.1
same,"blood sugar, Mean","[2]; 2 mg/kg/day oral, value column 3 of 6, head prints only weeks 0, 4, 8, 10",329.2
same,"blood sugar, Mean","[2]; 2 mg/kg/day oral, value column 4 of 6, head prints only weeks 0, 4, 8, 10",336.9
same,"blood sugar, Mean","[2]; 2 mg/kg/day oral, value column 6 of 6, head prints only weeks 0, 4, 8, 10",331.4
same,"blood sugar, Mean","[2]; 2 mg/kg/day oral, week 0",307.1
same,"drinking water intake, Mean","[3]; 2 mg/kg/day oral, week 0",7.07
same,"drinking water intake, Mean","[3]; 2 mg/kg/day oral, week 1",7.73
same,"drinking water intake, Mean","[3]; 2 mg/kg/day oral, week 2",7.05
same,"drinking water intake, Mean","[3]; 2 mg/kg/day oral, week 3",7.89
same,"drinking water intake, Mean","[3]; 2 mg/kg/day oral, week 4",7.69
same,"drinking water intake, Mean","[3]; 2 mg/kg/day oral, week 5",7.10
same,"drinking water intake, Mean","[3]; 2 mg/kg/day oral, week 6",7.35
same,"drinking water intake, Mean","[3]; 2 mg/kg/day oral, week 7",7.18
same,"drinking water intake, Mean","[3]; 2 mg/kg/day oral, week 8",7.83
same,"drinking water intake, Mean","[3]; 2 mg/kg/day oral, week 9",7.45
same,"drinking water intake, Mean","[3]; 2 mg/kg/day oral, week 10",7.19
same,"body weight, Mean","[4]; 2 mg/kg/day oral, week 0",24 g
same,"body weight, Mean","[4]; 2 mg/kg/day oral, week 1",23.5 g
same,"body weight, Mean","[4]; 2 mg/kg/day oral, week 2",23.6 g
same,"body weight, Mean","[4]; 2 mg/kg/day oral, week 3",23.6 g
same,"body weight, Mean","[4]; 2 mg/kg/day oral, week 4",23.6 g
same,"body weight, Mean","[4]; 2 mg/kg/day oral, week 5",23.7 g
same,"body weight, Mean","[4]; 2 mg/kg/day oral, week 6",23.6 g
same,"body weight, Mean","[4]; 2 mg/kg/day oral, week 7",23.8 g
same,"body weight, Mean","[4]; 2 mg/kg/day oral, week 9",23.3 g
same,"T-CHO, Mean","[5]; 2 mg/kg/day oral, 12 weeks, blood",139.0 dL⁻¹
"O=C(O)c1cc(=O)c2c(OCC(O)COc3cccc4oc(C(=O)O)cc(=O)c34)cccc2o1 [OC-101, cromolyn, reference compound]",Kidney Medullar apoptosis,"[1]; 50 mg/kg (G6, G7)",0
same,Kidney Medullar mineralization,"[1]; 50 mg/kg (G6, G7)",1
same,Kidney NHL,"[1]; 50 mg/kg (G6, G7)",8
same,Kidney bowman's capsule hyperplasia,"[1]; 50 mg/kg (G6, G7)",1
same,Kidney pappillary mineralization,"[1]; 50 mg/kg (G6, G7)",0
same,Liver Apoptosis,"[1]; 50 mg/kg (G6, G7)",2
same,Liver Cytoplasmic glycogen,"[1]; 50 mg/kg (G6, G7)",0
same,Liver Eosinophlic focus of cellular alteration,"[1]; 50 mg/kg (G6, G7)",1
same,Liver Mononuclear cell infiltrate,"[1]; 50 mg/kg (G6, G7)",3
same,Liver NHL,"[1]; 50 mg/kg (G6, G7)",5
same,Pancrease Apoptosis,"[1]; 50 mg/kg (G6, G7)",0
same,Pancrease NHL,"[1]; 50 mg/kg (G6, G7)",6
same,Pancrease islet degeneration,"[1]; 50 mg/kg (G6, G7)",2
same,Pancrease islet hypertrophy,"[1]; 50 mg/kg (G6, G7)",2
same,"Pancrease islet, mononuclear cell infillitrate","[1]; 50 mg/kg (G6, G7)",1
same,"blood sugar, Mean","[2]; 50 mg/kg/day oral, value column 2 of 6, head prints only weeks 0, 4, 8, 10",336.8
same,"blood sugar, Mean","[2]; 50 mg/kg/day oral, week 0",200.9
same,feed intake,[6]; week 3,5.47
same,feed intake,[6]; week 4,4.26
same,feed intake,[6]; week 6,4.29
same,feed intake,[6]; week 9,4.51
same,"drinking water intake, Mean","[3]; 50 mg/kg/day oral, week 0",6.78
same,"drinking water intake, Mean","[3]; 50 mg/kg/day oral, week 1",6.11
same,"drinking water intake, Mean","[3]; 50 mg/kg/day oral, week 2",7.68
same,"drinking water intake, Mean","[3]; 50 mg/kg/day oral, week 3",6.99
same,"drinking water intake, Mean","[3]; 50 mg/kg/day oral, week 4",7.23
same,"drinking water intake, Mean","[3]; 50 mg/kg/day oral, week 5",6.76
same,"drinking water intake, Mean","[3]; 50 mg/kg/day oral, week 6",7.60
same,"drinking water intake, Mean","[3]; 50 mg/kg/day oral, week 7",7.06
same,"drinking water intake, Mean","[3]; 50 mg/kg/day oral, week 8",7.17
same,"drinking water intake, Mean","[3]; 50 mg/kg/day oral, week 9",7.09
same,"drinking water intake, Mean","[3]; 50 mg/kg/day oral, week 10",6.76
same,"body weight, Mean","[4]; 50 mg/kg/day oral, week 0",23.9 g
same,"body weight, Mean","[4]; 50 mg/kg/day oral, week 1",23.4 g
same,"body weight, Mean","[4]; 50 mg/kg/day oral, week 2",23.5 g
same,"body weight, Mean","[4]; 50 mg/kg/day oral, week 3",23.3 g
same,"body weight, Mean","[4]; 50 mg/kg/day oral, week 4",23.5 g
same,"body weight, Mean","[4]; 50 mg/kg/day oral, week 5",23.4 g
same,"body weight, Mean","[4]; 50 mg/kg/day oral, week 6",23.5 g
same,"body weight, Mean","[4]; 50 mg/kg/day oral, week 7",23.4 g
same,"body weight, Mean","[4]; 50 mg/kg/day oral, week 8",23.2 g
same,"body weight, Mean","[4]; 50 mg/kg/day oral, week 9",23 g
same,"Indoxyl sulfate, Mean",[7],0.8 µg/mL
same,HOMA-IR compared with the disease control group,[8],decreased statistically significantly
same,GLU compared to the disease control group,[5]; 50 mg/kg,decreased statistically significantly
same,"ALT, Mean",[5]; [9],31.3 L⁻¹
same,"AST, Mean",[5]; [9],34.0 L⁻¹
same,"T-CHO, Mean",[5]; [9],24.2 dL⁻¹

# From patent publication US20240207236A1, “COMPOUND FOR PREVENTING OR TREATING DIABETES” (ONCOCROSS CO., LTD., priority 2021, published 2024)
